Usually IC50 stands for the concentration that inhibits the measured activity by half. In general, inhibition refers to how much of the control response was suppressed. Low values mean a weak effect, high ones a strong effect.

Assay [1] has as its system PI3-K in BT20 cells (phosphorylation of AKT at serine 473). The assay is described as follows: PI3-Kα Cellular Assay (AKT Ser473 phosphorylation ELISA in BT20 cells). The assay is classed as cell-based, human. The settings on record: Homo sapiens, BT-20, pAKT Ser473 ELISA, 1 hour incubation. Here is the method: Compounds of the present invention were evaluated for potency against PI3-K using a cellular assay as follows.
Healthy growing human breast cancer cells BT20 (PI3K mutated) are used for the assay. BT20 cells are grown in 10% FBS+GLN (1:100)+PS (1:100)+1 mM Sodium Pyruvate+0.1 mM Sodium Bicarbonate+Non-Essential Amino Acids Solution (1:100) MEM medium (MEM+all). […] The cells are re-suspended in 10% FBS MEM all and are centrifuged down at 1400 rpm for 5 minutes. The cells are re-suspended in 0.5% FBS MEM all and are counted on a cell counter. The cells are seeded at 25,000 cells/well in volume of 100 μL/well in 0.5% FBS MEM all in a 96 well flat-bottom plate. The negative control wells receive only 100 μL of 0.5% FBS MEM all medium without cells. The plate is incubated overnight in a cell culture incubator with 5% CO2 at 37° C.
On day 2, testing compounds are prepared in 0.5% FBS MEM all medium and serially diluted at 1:3 for 11 test concentrations. Each concentration of the compounds is tested in duplicate. The compound solutions are added at 25 μL/well to the corresponded wells in cell plate, and 25 μL/well of the vehicle (0.5% DMSO in 0.5% FBS MEM all) is added to the negative control wells (no cells) and the positive control wells (cells without compounds). The plate is incubated for 1 hour in a cell culture incubator with 5% CO2 at 37° C. After 1 hour of incubation, the medium is removed, 100 μL/well of cell lysis buffer is added into the cell plate, and shake for 15 minutes at room temperature. […] After 1 hour, empty the contents of the wells, wash the plate 4 times with the wash buffer, and add 100 μL of TMB substrate solution (catalog #T0440, Sigma) into each well, and incubate with gentle shaking at room temperature for […]. After 15 minutes of color development, add 100 μL of stop solution (1N hydrochloric acid) to each well, and read the plate at 450 nm on ELISA plate reader.

For assay [2], the target named is PI3-Kα (Mus musculus (Mouse), UniProt P42337). In words: PI3-Kα Biochemical Assay (fluorescence polarization kinase assay). Here is the method: Compounds of the present invention were evaluated for potency against PI3-Kα using an in vitro kinase assay. PI3-Kα activity is measured in vitro by determining the level of phosphorylation of the substrate PI(4,5)P2. The formation of product PI(3,4,5)P3 is monitored by binding to the Grip1 PH domain in a ligand displacement fluorescence polarization (FP) assay, in which the TAMRA-labeled PI(3,4,5)P3 complexed with Grip1 PH domain is displaced by PI(3,4,5)P3 formed in the PI3-Kα reaction resulting in a decrease in FP signal. Mouse PI3-Kα P110 and P85 subunits were co-expressed in insect cells and co-purified to homogeneity. PI(4,5)P2 were obtained from Cayman. TAMRA-labeled PI(3,4,5)P3 were from Echelon, Grip1 PH domain from Dundee and other reagents were from Sigma.
All assays were performed in a Corning solid black 96-well half area plate using LJL Analyst (Molecular Devices) at room temperature. The assay buffer contained 50 mM HEPES, pH 7.4, 150 mM NaCl, 5 mM DTT, and 0.05% CHAPS. Dry powder PI(4,5)P2 was dissolved in 50 mM TRIS, pH 8 to make 1 mM stock solution. The PI(4,5)P2 stock solution was then diluted in the assay buffer to 60 μM, and sonicated for 30 sec before use. To the assay plate, the following reagents were added in sequence: 10 μL of 60 μM PI(4,5)P2, 5 μL of 4 nM PI3-Kα, 2 μL of compound in 25% DMSO, 3 μL of mixture containing 200 μM ATP and 33 mM MgCl2. The final volume for the reaction was 20 μL. The reaction mixture was incubated at room temperature for 35 min. The reaction was then stopped by 20 μL of 20 mM EDTA. […] The FP signal was allowed to develop for 40 min before reading on a LJL analyst at excitation 535 nm and emission 580 nm.
The percentage of inhibition was calculated based on the following equation % inhibition=[1−(FPcompound−FPmax)/(FPmin−FPmax)]×100, where FPcompound is the FP reading at a given compound concentration, FPmin is the FP signal of the PI3-Kα reaction in the absence of a compound, and FPmax is the background FP signal in the absence of PI3-Kα and a compound. The IC50 was determined by fitting the FP signal vs. compound concentration to a sigmoidal dose response equation using GraphPad Prism curve fitting program.
(In general: In fluorescence polarisation assays a small probe gives low polarisation when free and higher when bound to something large.)

PI3-Kα, sequence (P42337 whole entry, the tested form may be a part): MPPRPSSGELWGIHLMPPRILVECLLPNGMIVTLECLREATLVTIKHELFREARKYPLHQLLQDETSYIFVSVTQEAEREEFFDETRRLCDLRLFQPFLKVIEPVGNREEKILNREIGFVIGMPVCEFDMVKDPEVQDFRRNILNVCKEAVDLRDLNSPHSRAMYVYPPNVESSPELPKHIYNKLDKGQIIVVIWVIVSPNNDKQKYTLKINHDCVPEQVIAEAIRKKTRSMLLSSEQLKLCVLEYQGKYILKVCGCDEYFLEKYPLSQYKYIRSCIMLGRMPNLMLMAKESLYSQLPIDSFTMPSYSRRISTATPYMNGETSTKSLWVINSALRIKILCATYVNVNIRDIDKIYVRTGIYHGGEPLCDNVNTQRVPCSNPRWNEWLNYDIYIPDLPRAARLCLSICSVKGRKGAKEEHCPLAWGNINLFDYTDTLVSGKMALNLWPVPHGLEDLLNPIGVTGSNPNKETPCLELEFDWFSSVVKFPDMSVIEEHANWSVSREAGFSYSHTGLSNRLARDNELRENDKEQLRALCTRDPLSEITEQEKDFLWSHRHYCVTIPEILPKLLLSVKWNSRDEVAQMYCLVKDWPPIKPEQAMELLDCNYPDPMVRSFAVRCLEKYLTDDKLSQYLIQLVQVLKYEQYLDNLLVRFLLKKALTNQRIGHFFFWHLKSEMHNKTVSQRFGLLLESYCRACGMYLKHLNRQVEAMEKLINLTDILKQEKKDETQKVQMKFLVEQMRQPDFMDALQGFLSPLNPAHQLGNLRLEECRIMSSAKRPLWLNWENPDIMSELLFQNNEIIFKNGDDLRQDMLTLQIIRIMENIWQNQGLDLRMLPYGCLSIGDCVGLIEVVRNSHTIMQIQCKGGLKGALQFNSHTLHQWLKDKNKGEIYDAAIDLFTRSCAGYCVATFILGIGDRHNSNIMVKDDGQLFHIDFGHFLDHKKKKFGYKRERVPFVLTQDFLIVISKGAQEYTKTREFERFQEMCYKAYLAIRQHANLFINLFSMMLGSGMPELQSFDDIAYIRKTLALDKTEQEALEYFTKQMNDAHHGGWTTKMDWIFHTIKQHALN
PI3-Kα, sequence (P26450 whole entry partner, the tested form may be a part): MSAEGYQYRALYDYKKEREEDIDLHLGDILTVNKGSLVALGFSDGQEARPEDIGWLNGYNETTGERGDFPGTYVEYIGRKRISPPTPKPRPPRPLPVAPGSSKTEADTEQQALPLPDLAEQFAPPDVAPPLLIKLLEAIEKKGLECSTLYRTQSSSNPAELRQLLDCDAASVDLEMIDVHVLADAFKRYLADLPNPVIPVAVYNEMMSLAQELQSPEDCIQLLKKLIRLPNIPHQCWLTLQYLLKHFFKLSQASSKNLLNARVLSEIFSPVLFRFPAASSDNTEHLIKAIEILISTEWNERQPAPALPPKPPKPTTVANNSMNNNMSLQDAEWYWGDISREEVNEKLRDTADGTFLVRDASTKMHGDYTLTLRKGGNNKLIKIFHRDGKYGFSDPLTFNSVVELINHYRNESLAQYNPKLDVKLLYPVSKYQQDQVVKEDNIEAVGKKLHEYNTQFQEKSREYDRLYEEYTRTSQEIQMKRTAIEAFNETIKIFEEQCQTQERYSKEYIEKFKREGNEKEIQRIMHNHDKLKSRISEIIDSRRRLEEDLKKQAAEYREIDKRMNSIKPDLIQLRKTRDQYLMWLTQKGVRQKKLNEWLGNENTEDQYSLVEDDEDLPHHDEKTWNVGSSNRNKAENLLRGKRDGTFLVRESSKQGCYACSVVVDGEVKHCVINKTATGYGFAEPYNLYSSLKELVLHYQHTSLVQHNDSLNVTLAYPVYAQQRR

As to `CNc1nc(C)c2cc(-c3cnc(N)c(OC[C@H](C)N)n3)c(=O)n(C3CCCC3)c2n1` [Compound 103, 6-(5-amino-6-{[(2S)-2-aminopropyl]oxy}pyrazin-2-yl)-8-cyclopentyl-4-methyl-2-(methylamino)pyrido[2,3-d]pyrimidin-7(8H)-one], the IC50 in assay [1] is 2.33 µM; in assay [2], 0.4 µM.

As for `CNc1nc(C)c2cc(-c3cc(CN)ccc3F)c(=O)n(C3CCCC3)c2n1` [Compound 104, 6-(5-(Aminomethyl)-2-fluorophenyl)-8-cyclopentyl-4-methyl-2-(methylamino)pyrido[2,3-d]pyrimidin-7(8H)-one], in assay [1], the IC50 was 10 µM. Moreover, in assay [2], at 10 µM the inhibition was 43%.

With `CNc1nc(C)c2cc(-c3cnn(CCO)c3)c(=O)n(C3CCCC3)c2n1` [Compound 105, 8-Cyclopentyl-6-(1-(2-hydroxyethyl)-1H-pyrazol-4-yl)-4-methyl-2-(methylamino)pyrido[2,3-d]pyrimidin-7(8H)-one], the IC50 was 0.234 µM in assay [1] and 0.024 µM in assay [2].

For the compound `Cc1nc(N)nc2c1cc(-c1cnn(CCO)c1)c(=O)n2C1CCCC1` [Compound 106, 2-Amino-8-cyclopentyl-6-(1-(2-hydroxyethyl)-1H-pyrazol-4-yl)-4-methylpyrido[2,3-d]pyrimidin-7(8H)-one], the figures for the IC50 in assay [1] and in assay [2] were 0.495 µM and 0.045 µM, respectively.

Consider `CNc1nc(C)c2cc(-c3cncnc3)c(=O)n(C3CCCC3)c2n1` [Compound 107, 8-Cyclopentyl-4-methyl-2-(methylamino)-6-(pyrimidin-5-yl)pyrido[2,3-d]pyrimidin-7(8H)-one], for which the IC50 in assay [1] turned out to be 0.305 µM; in assay [2] it was 0.023 µM.

In turn, `CNc1nc(C)c2cc(-c3ccc(O)c(OC)c3)c(=O)n(C3CCCC3)c2n1` [Compound 108, 8-cyclopentyl-6-(4-hydroxy-3-methoxyphenyl)-4-methyl-2-(methylamino)pyrido[2,3-d]pyrimidin-7(8H)-one] returned an IC50 in assay [1] of 0.00382 µM. In addition, in assay [2], the IC50 is 0.00157 µM and testing at 10 µM gave an inhibition of 99%.

As to `CNc1nc(C)c2cc(-c3ccc(OC)nc3)c(=O)n(C3CCC3)c2n1` [Compound 109, 8-Cyclobutyl-6-(6-methoxypyridin-3-yl)-4-methyl-2-(methylamino)pyrido[2,3-d]pyrimidin-7(8H)-one], it took 0.0584 µM to reach half-maximal inhibition in assay [1] (IC50). In addition, in assay [2], the IC50 amounted to 0.0063 µM and the inhibition at 10 µM worked out at 99%.

As to `C=CCn1c(=O)c(-c2ccc(OC)nc2)cc2c(C)nc(NC)nc21` [Compound 110, 8-allyl-6-(6-methoxypyridin-3-yl)-4-methyl-2-(methylamino)pyrido[2,3-d]pyrimidin-7(8H)-one], the IC50 was found to be 0.106 µM in assay [1] and 0.017 µM in assay [2].

As to `Cc1nc(N)nc2c1cc(-c1ccc(Cl)nc1)c(=O)n2C1CCCC1` [Compound 112, 2-amino-6-(6-chloropyridin-3-yl)-8-cyclopentyl-4-methylpyrido[2,3-d]pyrimidin-7(8H)-one], the results for the IC50 in assay [1] and in assay [2] were 0.0742 µM and 0.0391 µM, respectively.

As for `CNc1nc(C)c2cc(-c3ccc(OC)nc3)c(=O)n(C(C)C)c2n1` [Compound 113, 8-Isopropyl-6-(6-methoxypyridin-3-yl)-4-methyl-2-(methylamino)pyrido[2,3-c]pyrimidin-7(8H)-one], the IC50 in assay [1] turned out to be 0.0952 µM; in assay [2] it was 0.021 µM.

`Cc1nc(NCC(C)(C)O)nc2c1cc(-c1cccc(O)c1)c(=O)n2C1CCCC1` [Compound 114, 8-Cyclopentyl-2-(2-hydroxy-2-methylpropylamino)-6-(3-hydroxyphenyl)-4-methylpyrido[2,3-d]-pyrimidin-7(8H)-one]: the IC50 stood at 1.18 µM in assay [1] and 0.11 µM in assay [2].

Regarding `CNc1nc(C)c2cc(-c3cnc4[nH]ccc4c3)c(=O)n(C3CCCC3)c2n1` [Compound 115, 8-cyclopentyl-4-methyl-2-(methylamino)-6-(1H-pyrrolo[2,3-b]pyridin-5-yl)pyrido[2,3-d]pyrimidin-7(8H)-one], the IC50 in assay [1] was 0.00382 µM; in assay [2] it was 0.00075 µM.

As to `COc1ccc(-c2cc3c(C)nc(NCC(C)(C)O)nc3n(C3CCCC3)c2=O)cn1` [Compound 116, 8-Cyclopentyl-2-(2-hydroxy-2-methylpropylamino)-6-(6-methoxypyridin-34)-4-methylpyrido[2,3-d]pyrimidin-7(8H)-one], the half-maximal inhibitory concentration (IC50) in assay [1] was 5.75 µM; in assay [2], 0.83 µM.

On to `CCNc1nc(C)c2cc(CCC(=O)N(CC)CC)c(=O)n(C3CCCC3)c2n1` [Compound 117, 3-[8-cyclopentyl-2-(ethylamino)-methyl-7-oxo-7,8-dihydropyrido[2,3-d]pyrimidin-6-yl]-N,N-diethylpropanamide], for which the IC50 in assay [1] amounted to 10 µM. The compound further came in with an inhibition at 10 µM in assay [2] of 32%.

Consider `CCNc1nc(C)c2cc(CCC(=O)Nc3ncc[nH]3)c(=O)n(C3CCCC3)c2n1` [Compound 119], for which the values for the IC50 in assay [1] and in assay [2] were 5.71 µM and 0.31 µM, respectively.

As for `CNc1nc(C)c2cc(/C=C/O)c(=O)n(C3CCCC3)c2n1` [Compound 120, (E)-8-cyclopentyl-6-(2-hydroxyvinyl)-4-methyl-2-(methylamino)pyrido[2,3-d]pyrimidin-7(8H)-one], the IC50 came out at 0.896 µM in assay [1] and 0.042 µM in assay [2].

In the case of `Cc1nc(N)nc2c1cc(-c1cn[nH]c1)c(=O)n2N1CCCC1` [Compound 193, 2-Amino-4-methyl-6-(1H-pyrazol-4-yl)-8-(pyrrolidin-1-yl)pyrido[2,3-d]pyrimidin-7(8H)-one], inhibition in assay [2] was half-maximal at 0.028 µM (IC50).

On to `COc1ccc(-c2cc3c(C)nc(N)nc3n(N3CCCC3)c2=O)cn1` [Compound 195, 2-amino-6-(6-methoxypyridin-3-yl)-4-methyl-8-(pyrrolidin-1-yl)pyrido[2,3-d]pyrimidin-7(8H)-one], for which the IC50 in assay [2] is 0.023 µM.

`Cc1nc(N)nc2c1cc(-c1cn[nH]c1)c(=O)n2C1CC1` [Compound 211, 2-amino-8-cyclopropyl-4-methyl-6-(1H-pyrazol-4-yl)pyrido[2,3-d]pyrimidin-7(8H)-one]: 0.078 µM corresponded to half-maximal inhibition in assay [2] (IC50).

The compound `COc1ccc(-c2cc3c(C)nc(N)nc3n(C3CC3)c2=O)cn1` [Compound 212, 2-amino-8-cyclopropyl-6-(6-methoxypyridin-3-yl)-4-methylpyrido[2,3-d]pyrimidin-7(8H)-one] registered an IC50 in assay [2] of 0.056 µM. This IC50 and that of the compound before are within 1.5-fold of each other.

As to `COc1ncc(-c2cc3c(C)nc(N)nc3n(C3CCOCC3)c2=O)cc1F` [Compound 265, 2-amino-6-(5-fluoro-6-methoxypyridin-3-yl)-4-methyl-8-(tetrahydro-2H-pyran-4-yl)pyrido[2,3-d]pyrimidin-7(8H)-one], the IC50 in assay [2] was 0.00143 µM. This IC50 is about 39-fold lower than that of the compound before.

For the compound `CCn1nccc1NC(=O)c1cc2c(C)nc(N)nc2n(C(C)C)c1=O` [Compound 280, 2-amino-N-(1-ethyl-1H-pyrazol-5-yl)-8-isopropyl-4-methyl-7-oxo-7,8-dihydropyrido[2,3-d]pyrimidine-6-carboxamide], 0.0039 µM corresponded to half-maximal inhibition in assay [2] (IC50).

Consider `COc1ncc(-c2cc3c(C)nc(N)nc3n([C@H]3CC[C@@H](OCCO)CC3)c2=O)cc1F` [Compound 294, 2-amino-6-(5-fluoro-6-methoxypyridin-3-yl)-8-[cis-4-(2-hydroxyethoxy)cyclohexyl]-4-methylpyrido[2,3-d]pyrimidin-7(8H)-one], for which the IC50 in assay [2] amounted to 0.0026 µM.

The values are drawn from patent US8633204B2 (Pfizer Inc., priority 2006, dated 2014).
